# Laboratory results taken from patent publication US7312358B2, “Pharmaceutically active sulfanilide derivatives” (Laboratoires Serono SA, priority 2000, dated 2007).
# Legend:
# [1] = molecular target: T1, hOT-R (Homo sapiens, UniProt P30559); assay: Inhibition of oxytocin mediated Ca2+-mobilization by FLIPR (HEK cells); assay type: cell-based; conditions: fluo-4, OT 40 nM
# T1 construct: expressed in transfected cells; host or cells: HEK (Human Embryonic Kidney) cells
# T1 sequence (P30559 1-389): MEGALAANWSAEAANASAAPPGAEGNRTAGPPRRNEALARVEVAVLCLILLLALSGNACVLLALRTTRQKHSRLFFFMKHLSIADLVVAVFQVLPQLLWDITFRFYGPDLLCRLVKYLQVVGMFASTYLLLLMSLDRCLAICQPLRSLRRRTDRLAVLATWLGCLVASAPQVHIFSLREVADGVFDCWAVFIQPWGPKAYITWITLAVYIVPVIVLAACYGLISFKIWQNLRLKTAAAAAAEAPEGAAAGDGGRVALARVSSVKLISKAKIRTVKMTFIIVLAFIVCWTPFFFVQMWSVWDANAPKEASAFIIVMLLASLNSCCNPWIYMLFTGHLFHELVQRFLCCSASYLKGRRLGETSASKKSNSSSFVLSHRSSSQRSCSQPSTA
# Excerpt: c) Functional Assay No. 1: Inhibition of Oxytocitn Mediated Ca^2+-Mobilization by FLIPR (Fluorescent Imaging Plate Reader)
# FLIPR is a machine for fluorescence imaging using a laser that is capable of illuminating a 96-well plate and a means of simultaneously reading each well thus enabling rapid measurements on a large number of samples.
# This assay intends to show the inhibition of the OT/OT-R mediated calcium mobilisation—being necessary to cause uterine contractions—by using test compounds of formula (I).
# Preparing the plates: FLIPR-plates were pre-coated with PLL (Poly-L-Lysine) 10 μg/ml+0.1% gelatine to attach the HEK (Human Embryonic Kidney) cells for 30 min up to 2 days at 37° C. The cells were plated out into 96-well plates (60000 cells/well).
# Labelling with fluo-4: […] fluo-4 (fluorescent marker) were dissolved in 20 μl pluronic acid (20% in DMSO). The dissolved fluo-4 was then diluted in 10 ml DMEM (Dubecco's Minimal Essential Medium-F12 medium without FCS (Fetal Calf Serum). The medium was removed from the plates, followed by one wash with DNEM-F12 medium. Now, 100 μl of the DMEM-F12 medium containing fluo-4 were added and the cells incubated for 1.5-2 h (HEK-cells). The cells now contain the fluorescent marker.
# Buffer: 145 mM NaCl, 5 mM KCl, 1 mM MgCl2, 10 mM Hepes, 10 mM Glucose, EGTA (Ethylene-bis oxyethylene nitrilo tetraacetic acid). Adjust to pH 7.4.
# Performance of the assay: A minimum of 80 μl/well of antagonists (5×) in the above buffer (1×) were prepared (96-well plates). The antagonists were added to the well-plates at different concentrations (30 μM, 10 μM, 1 μM, 300 nM, 100 nM, 10 nM, 1 nM, 100 pM, 10 pM).
# OT is added at a concentration of 40 nM.
# The fluorescent marker being sensitive to the amount of Ca^2+ mobilized within the cell may be quantified by the FLIPR machine.
# The activities of the sulfanilide derivatives according to formula I were assessed using the above described in vitro biological assay. The values refer to the capacity of the example compounds according to formula I to effectively antagonize oxytocin-induced intracellular Ca^2+-mobilization mediated by the oxytocin receptor.
# [2] = molecular target: T2, hOT receptor (Homo sapiens, UniProt P30559); assay: In vitro competition binding assay on hOT receptor with scintillating proximity assay; conditions: membranes from HEK293EBNA cells expressing hOT receptor; radiolabel [125I]-OVTA; SPA; read-out: Binding Affinity Human OT-R Ki
# T2 construct: expressed in transfected cells; host or cells: HEK293EBNA cells (membranes)
# T2 sequence (P30559 1-389): T1 sequence (P30559 1-389)
# Procedure: a) In Vitro Competition Binding Assay on hOT Receptor with Scintillating Proximity Assay (Pharmaceutical Manufacturing International, 1992, p. 49-53 by Cook, N. D. et al)
# This assays allows to determine the affinity of the test compounds for the OT receptor. Membranes from HEK293EBNA cells expressing the hOT receptor were resuspended in buffer containing 50 mM Tris-HCl, pH 7.4, 5 mM MgCl2 and 0.1% BSA (w/v). The membranes (2-4 μg) were mixed with 0.1 mg wheat-germ aglutinin (WGA) SPA bead (type A) and 0.2 nM of the radiolabel [^125I]-OVTA (OVTA being […] and is an analogue of OT for competition binding experiments). Non-specific binding was determined in the presence of 1 μM Oxytocin. The total assay volume was 100 μl. The plates (Corning (D NBS plate) were incubated at room temperature for 30 min and counted on a Mibrobeta plate counter. The tests compounds were used in concentrations of 30 μM, 10 μM, 1 μM, 300 nM, 100 nM, 10 nM, 1 nM, 100 pM, 10 pM. The competition binding data were analysed using the iterative, nonlinear, curve-fitting program, “Prism”.
# The binding affinities to the oxytocin receptor of the sulfanilide derivatives claimed in the formula I were assessed using the above described in vitro biological assay. The values refer to the binding affinity (IC50; μM) of the example compounds according to formula I to the Oxytocin receptor. From the values shown in Table 1 it can be derived that said test compounds according to formula I do show a significant binding to the oxytocin receptor.
SMILES,IC50 [1] [nM],Ki [2] [nM],melting point [°C]
COc1ccc(N(CC(=O)Nc2cccc3ccccc23)S(=O)(=O)c2ccccc2)cc1 [2-[Benzenesulfonyl-(4-methoxy-phenyl)-amino]-N-naphthalen-1-yl-acetamide],363,–,–
"CN(C)CCCNC(=O)CCc1ccc(S(=O)(=O)N(CC(=O)N/N=C2\C(=O)Nc3ccccc32)c2ccc(Cl)cc2)cc1 [Example 71, 3-{4-[(4-chloro{2-oxo-2-[(2Z)-2-(2-oxo-1,2-dihydro-3H-indol-3-ylidene)hydrazino]ethyl}anilino)sulfonyl]phenyll}-N-[3-(dimethylamino)propyl]propanamide]",14,0.7,–
COc1ccc(N(CC(=O)Nc2cccc(Cl)c2C)S(=O)(=O)c2ccccc2)cc1 [2-[Benzenesulfonyl-(4-methoxy-phenyl)-amino]-N-(3-chloro-2-methyl-phenyl)-acetamide],45,–,–
"COC(=O)c1cccc2c1NC(=O)/C2=N\NC(=O)CN(c1ccc(Cl)cc1)S(=O)(=O)c1ccc(OCCCN(C)C)cc1 [Example 70, Methyl (3Z)-3-({[4-chloro({4-[3-(dimethylamino)propoxy]phenyl}sulfonyl)anilino]acetyl}hydrazono)-2-oxo-2,3-dihydro-1H-indole-7-carboxylate]",393,108,–
"O=C(CN(c1ccc(Cl)cc1)S(=O)(=O)c1ccc(NCCN2CCOCC2)cc1)N/N=C1\C(=O)Nc2ccccc21 [Example 65, N-(4-chlorophenyl)-4-{[2-(4-morpholinyl)ethyl]amino}-N-{2-oxo-2-[(2Z)-2-(2-oxo-1,2-dihydro-3H-indol-3-ylidene)hydrazino]ethyl}benzenesulfonamide]",49,6.9,–
"CCCCOc1ccc(S(=O)(=O)N(CC(=O)N/N=C2/C(=O)Nc3ccccc32)c2ccc(C)cc2)cc1 [Example 30, 4-Butoxy-N-(4-methylphenyl)-N-{2-oxo-2-[(2E)-2-(2-oxo-1.2-dihydro-3H-indol-3-ylidene)hydrazino]ethyl}benzenesulfonamide]",–,–,111 to 112
"Cc1ccc(N(CC(=O)NCc2ccc(Cl)cc2Cl)S(=O)(=O)c2ccc(C)cc2)cc1 [N-(2,4-Dichloro-benzyl)-2-[(toluene-4-sulfonyl)-p-tolyl-amino]-acetamide]",595,–,–
COc1ccc(N(CC(=O)Nc2cccc(OC)c2)S(=O)(=O)c2ccccc2)cc1 [2-[Benzenesulfonyl-(4-methoxy-phenyl)-amino]-N-(3-methoxy-phenyl)-acetamide],392,–,–

# More lines, now with the values ahead:
IC50 [1] [nM],Ki [2] [nM],melting point [°C],SMILES
17,2.8,–,"O=C(CN(c1ccc(Cl)cc1)S(=O)(=O)c1ccc(OCCCc2cccnc2)cc1)N/N=C1\C(=O)Nc2ccccc21 [Example 63, N-(4-chlorophenyl)-N-{2-oxo-2-[(2Z)-2-(2-oxo-1,2-dihydro-3H-indol-3-ylidene)hydrazino]ethyl}-4-[3-(3-pyridinyl)propoxy]benzenesulfonamide]"
19,3.4,–,"Cc1ccc(N(CC(=O)N/N=C2\C(=O)Nc3ccccc32)S(=O)(=O)c2ccc(CCC(N)=O)cc2)cc1 [Example 66, 3-{4-[(4-methyl{2-oxo-2-[(2Z)-2-(2-oxo-1,2-dihydro-3H-indol-3-ylidene)hydrazino]ethyl}anilino)sulfonyl]phenyl}propanamide]"
8,–,–,"COCCOc1ccc(S(=O)(=O)N(CC(=O)N/N=C2\C(=O)Nc3ccccc32)c2ccc(Cl)cc2)cc1 [Example 62, N-(4-chlorophenyl)-4-(2-methoxyethoxy)-N-{2-oxo-2-[(2Z)-2-(2-oxo-1,2-dihydro-3H-indol-3-ylidene)hydrazino]ethyl}benzenesulfonamide]"
–,–,245 to 246,"Cc1ccc(N(CC(=O)N/N=C2/C(=O)Nc3ccccc32)S(=O)(=O)c2ccc(Oc3ccccc3)cc2)cc1 [Example 14, N-(4-methylphenyl)-N-{2-oxo-2-[2-(2-oxo-1,2-dihydro-3H-indol-3-ylidene)hydrazino]ethyl}-4-phenoxybenzenesulfonamide]"
–,–,252 to 253,"CCOc1ccc(S(=O)(=O)N(CC(=O)N/N=C2/C(=O)Nc3ccc([N+](=O)[O-])cc32)c2ccccc2)cc1 [Example 3, 4-ethoxy-N-{2-[2-(5-nitro-2-oxo-1,2-dihydro-3H-indol-3-ylidene)hydrazino]-2-oxoethyl}-N-phenylbenzenesulfonamide]"
–,–,235 to 236,"COc1ccc(-c2ccc(S(=O)(=O)N(CC(=O)N/N=C3\C(=O)Nc4ccccc43)c3ccc(C)cc3)cc2)cc1 [Example 19, 4′-methoxy-N-(4-methylphenyl)-N-{2-oxo-2-[2-(2-oxo-1,2-dihydro-3H-indol-3-ylidene)hydrazino]ethyl}[1,1′-biphenyl]-4-sulfonamide]"
102,0.4,–,"CCOc1ccc(S(=O)(=O)N(CC(=O)N/N=C2\C(=O)Nc3ccccc32)c2ccc(Cl)cc2)cc1 [Example 40, N-(4-chlorophenyl)-4-ethoxy-N-{2-oxo-2-[(2Z)-2-(2-oxo-1,2-dihydro-3H-indol-3-ylidene)hydrazino]ethyl}benzenesulfonamide]"
–,–,134 to 135,"COc1ccc(S(=O)(=O)N(CC(=O)N/N=C2/C(=O)Nc3ccccc32)c2ccc(C)cc2)cc1 [Example 9, 4-methoxy-N-(4-methylphenyl)-N-{2-oxo-2-[2-(2-oxo-1,2-dihydro-3H-indol-3-ylidene)hydrazino]ethyl}benzenesulfonamide]"
–,–,246 to 247,"Cc1ccc(N(CC(=O)N/N=C2/C(=O)Nc3ccccc32)S(=O)(=O)c2ccc(-c3ccccc3)cc2)cc1 [Example 13, N-(4-methylphenyl)-N-{2-oxo-2-[2-(2-oxo-1.2-dihydro-3H-indol-3-ylidene)hydrazino]ethyl}[1,1′-biphenyl]-4-sulfonamide]"
6.9,2.9,–,"COCCOCCOc1ccc(S(=O)(=O)N(CC(=O)N/N=C2\C(=O)Nc3ccccc32)c2ccc(Cl)cc2)cc1 [Example 61, N-(4-chlorophenyl)-4-[2-(2-methoxyethoxy)ethoxy]-N-{2-oxo-2-[(2Z)-2-(2-oxo-1,2-dihydro-3H-indol-3-ylidene)hydrazino]ethyl}benzenesulfonamide]"
–,–,194 to 195,"CC(C)(C)c1ccc(S(=O)(=O)N(CC(=O)N/N=C2/C(=O)Nc3ccccc32)c2ccc(Cl)cc2)cc1 [Example 26, 4-tert-Butyl-N-(4-chlorophenyl)-N-{2-oxo-2-[(2E)-2-(2-oxo-1,2-dihydro-3H-indol-3-ylidene)hydrazino]ethyl}benzenesulfonamide]"
